One block for each molecule: values may come before it. Active and inactive are the calls of the source. No cut-off for these calls is given here.
Experiments:
[1] = molecular target: T1, Vitamin D3 receptor (Homo sapiens) (UniProt P11473); assay: Binding affinity to full-length VDR (unknown origin) at 1 uM by fluorescence polarization assay relative to control
T1 sequence (whole entry): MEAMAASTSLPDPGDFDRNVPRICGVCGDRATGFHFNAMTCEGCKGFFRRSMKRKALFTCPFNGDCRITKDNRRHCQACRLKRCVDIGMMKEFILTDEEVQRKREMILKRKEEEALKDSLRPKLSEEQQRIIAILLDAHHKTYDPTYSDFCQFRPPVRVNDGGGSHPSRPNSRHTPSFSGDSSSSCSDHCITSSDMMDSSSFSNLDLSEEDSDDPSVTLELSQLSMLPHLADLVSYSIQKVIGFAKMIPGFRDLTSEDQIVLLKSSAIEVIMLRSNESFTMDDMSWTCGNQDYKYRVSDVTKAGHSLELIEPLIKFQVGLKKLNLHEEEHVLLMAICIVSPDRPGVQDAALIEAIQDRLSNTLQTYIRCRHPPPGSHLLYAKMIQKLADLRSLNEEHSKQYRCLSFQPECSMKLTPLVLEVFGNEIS

[2] = test system: LX-2; assay: Inhibition of HSC activation in TGF-beta1-treated human LX2 cells assessed as decrease in COL1A1 mRNA level at 0.5 uM incubated for 24 hrs by qPCR analysis; assay type: functional, cell-based
[3] = test system: LX-2; assay: Inhibition of HSC activation in TGF-beta1-treated human LX2 cells assessed as decrease in ACTA2 mRNA level at 0.5 uM incubated for 24 hrs by qPCR analysis; assay type: functional, cell-based
[4] = molecular target: T1, Vitamin D3 receptor (Homo sapiens); assay: Agonist activity at VDR in human LX2 cells assessed as increase in CYP24A1 level at 0.5 uM by qRT-PCR analysis; assay type: cell-based; conditions: filed as agonist
[5] = test system: LX-2; assay: Inhibition of HSC activation in TGF-beta1-treated human LX2 cells assessed as decrease in alpha-SMA level at 0.5 uM incubated for 24 hrs by Western blot analysis; assay type: functional, cell-based
[6] = test system: LX-2; assay: Inhibition of HSC activation in TGF-beta1-treated human LX2 cells assessed as decrease in collagen-I level at 0.5 uM incubated for 24 hrs by Western blot analysis; assay type: functional, cell-based
[7] = test system: LX-2; assay: Inhibition of HSC activation in TGF-beta1-treated human LX2 cells harboring VDR siRNA assessed as decrease in alpha-SMA level at 0.5 uM incubated for 24 hrs by Western blot analysis; assay type: functional, cell-based
[8] = test system: LX-2; assay: Inhibition of HSC activation in TGF-beta1-treated human LX2 cells harboring VDR siRNA assessed as decrease in collagen-I level at 0.5 uM incubated for 24 hrs by Western blot analysis; assay type: functional, cell-based
[9] = test system: Mus musculus; assay: Anti-fibrotic activity in CCl4-induced hepatic fibrosis C57BL/6 mouse model assessed as reduction in hepatic lesion in liver at 500 ug/kg, po administered daily for 2 weeks by H and E/Masson's trichrome staining based analysis; assay type: functional, organism-based
[10] = molecular target: T1, Vitamin D3 receptor (Homo sapiens); assay: Agonist activity at human VDR in HEK293 cells co-expressing 3-Luc/RXRalpha assessed as transcriptional activity at 0.5 uM by dual luciferase reporter assay; assay type: cell-based; conditions: filed as agonist
[11] = test system: Mus musculus; assay: Anti-fibrotic activity in CCl4-induced hepatic fibrosis C57BL/6 mouse model assessed as decrease in Timp-1 mRNA level in liver at 500 ug/kg, po administered daily for 2 weeks by qPCR analysis; assay type: functional, organism-based
[12] = test system: Mus musculus; assay: Anti-fibrotic activity in CCl4-induced hepatic fibrosis C57BL/6 mouse model assessed as prevention of serum calcium level elevation at 500 ug/kg, po administered daily for 2 weeks; assay type: functional, organism-based
[13] = test system: Mus musculus; assay: Anti-fibrotic activity in CCl4-induced hepatic fibrosis C57BL/6 mouse model assessed as reduction in AST level at 500 ug/kg, po administered daily for 2 weeks; assay type: functional, organism-based
[14] = test system: Mus musculus; assay: Anti-fibrotic activity in CCl4-induced hepatic fibrosis C57BL/6 mouse model assessed as reduction in collagen deposition in liver at 500 ug/kg, po administered daily for 2 weeks by H and E/Masson's trichrome staining based analysis; assay type: functional, organism-based
[15] = test system: Mus musculus; assay: Anti-fibrotic activity in CCl4-induced hepatic fibrosis C57BL/6 mouse model assessed as reduction in alpha-SMA level in liver at 500 ug/kg, po administered daily for 2 weeks by immunofluorescence based analysis; assay type: functional, organism-based
[16] = test system: Mus musculus; assay: Anti-fibrotic activity in CCl4-induced hepatic fibrosis C57BL/6 mouse model assessed as increase in IL-10 level in liver at 500 ug/kg, po administered daily for 2 weeks by ELISA; assay type: functional, organism-based
[17] = test system: Mus musculus; assay: Anti-fibrotic activity in CCl4-induced hepatic fibrosis C57BL/6 mouse model assessed as reduction in ALT level at 500 ug/kg, po administered daily for 2 weeks; assay type: functional, organism-based
[18] = test system: Mus musculus; assay: Anti-fibrotic activity in CCl4-induced hepatic fibrosis C57BL/6 mouse model assessed as reduction in TBA level at 500 ug/kg, po administered daily for 2 weeks; assay type: functional, organism-based
[19] = test system: Mus musculus; assay: Anti-fibrotic activity in CCl4-induced hepatic fibrosis C57BL/6 mouse model assessed as decrease in Ctgf mRNA level in liver at 500 ug/kg, po administered daily for 2 weeks by qPCR analysis; assay type: functional, organism-based
[20] = test system: Mus musculus; assay: Anti-fibrotic activity in CCl4-induced hepatic fibrosis C57BL/6 mouse model assessed as decrease in Fn mRNA level in liver at 500 ug/kg, po administered daily for 2 weeks by qPCR analysis; assay type: functional, organism-based
[21] = test system: Mus musculus; assay: Anti-fibrotic activity in CCl4-induced hepatic fibrosis C57BL/6 mouse model assessed as reduction in IL-1beta level in liver at 500 ug/kg, po administered daily for 2 weeks by ELISA; assay type: functional, organism-based

Structure (SMILES): CC(C)(C)C(O)COc1ccc(/C=C/C2=C[C@@H](O)[C@@H](O)[C@H](O)C2)c2c1CCCC2 (some centres undefined)
Activity ([1]; filed as agonist): 50%

Structure (SMILES): CC(C)(C)C(=O)COc1ccc(/C=C/C2=C[C@@H](O)[C@@H](O)[C@H](O)C2)c2c1CCCC2
Activity ([1]; filed as agonist): 68%

Structure (SMILES): CC(OC(=O)C1=C[C@@H](O)[C@@H](O)[C@H](O)C1)c1cccc(OCCCC(C)(C)O)c1 (some centres undefined)
Activity ([1]; filed as agonist): 85%

Structure (SMILES): CC(C)(O)CCCOc1ccc(C#CC2=C[C@@H](O)[C@@H](O)[C@H](O)C2)c2c1CCCC2
Activity [1]: 15%

Structure (SMILES): O=C(OC1CCCc2c(OCCCN3CCOCC3)cccc21)C1=C[C@@H](O)[C@@H](O)[C@H](O)C1 (some centres undefined)
inhibition [5]: inactive
Activity [1]: 50%
inhibition [2]: inactive
inhibition [3]: inactive
inhibition [6]: inactive

Structure (SMILES): CCC(OC(=O)C1=C[C@@H](O)[C@@H](O)[C@H](O)C1)c1cccc(OCCCC(O)(CC)CC)c1 (some centres undefined)
Activity [9]: Active
Activity [10]: Active
inhibition [7]: inactive
Activity [11]: Active
Activity [12]: Active
Activity [13]: Active
Activity [14]: Active
inhibition [8]: inactive
Activity [15]: Active
inhibition [5]: Active
Activity ([1]; filed as agonist): 84%
inhibition [2]: Active
Activity [16]: Active
Activity [17]: Active
inhibition [3]: Active
Activity [18]: Active
Activity [4]: Active
Activity [19]: Active
Activity [20]: Active
inhibition [6]: Active
Activity [21]: Active

Structure (SMILES): CC(C)(O)CCOc1cccc2c1CCCC2OC(=O)C1=C[C@@H](O)[C@@H](O)[C@H](O)C1 (some centres undefined)
Activity ([1]; filed as agonist): 45%

Structure (SMILES): CCCCC(OC(=O)C1=C[C@@H](O)[C@@H](O)[C@H](O)C1)c1cccc(OCCCC(C)(C)O)c1 (some centres undefined)
Activity ([1]; filed as agonist): 50%

Structure (SMILES): CC(C)(O)CCOc1ccc(/C=C/C2=C[C@@H](O)[C@@H](O)[C@H](O)C2)c2c1CCCC2
Activity ([1]; filed as agonist): 55%

Structure (SMILES): CCC(O)(CC)c1ccc(-c2ccc(COC(=O)C3=C[C@@H](O)[C@@H](O)[C@H](O)C3)s2)c(C)c1
Activity [10]: Active
inhibition [5]: Active
Activity ([1]; filed as agonist): 60%
inhibition [2]: Active
inhibition [3]: Active
Activity [4]: Active
inhibition [6]: Active

Structure (SMILES): CC(C)(O)CCOc1ccc(C#CC2=C[C@@H](O)[C@@H](O)[C@H](O)C2)c2c1CCCC2
Activity ([1]; filed as agonist): 56%

Further lines, with some results ahead:

Activity ([1]; filed as agonist): 72%
Activity [4]: Active
Structure (SMILES): O=C(COc1ccc(/C=C/C2=C[C@@H](O)[C@@H](O)[C@H](O)C2)c2c1CCCC2)c1ccccc1
inhibition [2]: Active
inhibition [3]: Active

Activity [1]: 77%
Structure (SMILES): OC(COc1ccc(/C=C/C2=C[C@@H](O)[C@@H](O)[C@H](O)C2)c2c1CCCC2)c1ccccc1 (some centres undefined)
inhibition [5]: inactive
inhibition [2]: inactive
inhibition [3]: inactive
inhibition [6]: inactive

Activity ([1]; filed as agonist): 100%
Structure (SMILES): C=C1/C(=C\C=C2/CCC[C@]3(C)[C@@H]([C@H](C)/C=C/[C@@H](O)C4CC4)CC[C@@H]23)C[C@@H](O)C[C@@H]1O
inhibition [7]: inactive
inhibition [8]: inactive

Activity ([1]; filed as agonist): 76%
Structure (SMILES): CC(C)c1ccc(C(=O)COc2ccc(/C=C/C3=C[C@@H](O)[C@@H](O)[C@H](O)C3)c3c2CCCC3)cc1

Activity [1]: 34%
Structure (SMILES): CCCCC(O)(CCCC)CCCOc1cccc2c1CCCC2OC(=O)C1=C[C@@H](O)[C@@H](O)[C@H](O)C1 (some centres undefined)

Activity ([1]; filed as agonist): 71%
Structure (SMILES): Cc1cc(C(C)(C)O)ccc1-c1ccc(COC(=O)C2=C[C@@H](O)[C@@H](O)[C@H](O)C2)s1

Activity ([1]; filed as agonist): 71%
Structure (SMILES): CC(C)(O)CCCn1ccc2c(/C=C/C3=C[C@@H](O)[C@@H](O)[C@H](O)C3)cccc21

Activity ([1]; filed as agonist): 43%
Structure (SMILES): CC(C)(O)CCCOc1ccc(/C=C/C2=C[C@@H](O)[C@@H](O)[C@H](O)C2)c2c1CCCC2

Activity ([1]; filed as agonist): 68%
Structure (SMILES): CCC(O)(CC)CCCOc1cccc2c1CCCC2OC(=O)C1=C[C@@H](O)[C@@H](O)[C@H](O)C1 (some centres undefined)

Reference: ChEMBL document CHEMBL6153077, “Design, synthesis, and anti-liver fibrosis activity of novel non-steroidal vitamin D receptor agonists based on open-ring steroid scaffold” (Eur J Med Chem, 2025)
